Reference: patent US8669395B2, “Optically active 4-amino-3-(4-chlorophenyl)butanoic acid” (Sumitomo Chemical Company, Limited, priority 2009, dated 2014)

What was measured:
[1] = solubility in 100 g of water, Test Example 2; format: physicochemical
Description: About each of crystal A yielded according to the same process in Example 1, and crystal B yielded according to the same process in Comparative Example 1, the solubility thereof in 100 g of water was measured.

[2] = differential scanning calorimetry (DSC), Test Example 1; format: physicochemical; details: for Endothermic peak / Exothermic peak: DSC, 25 to 500° C., 10° C./minute, air-tightly closed SUS container
Description: About the DSC measurement, for example, a differential scanning calorimeter of an EXTER 6000 type, manufactured by SII Nano Technology Inc., is used to make it possible to make the measurement under the following conditions: […]
measuring temperature range: 25 to 500° C., temperature-raising rate: 10° C./minute, container: air-tightly closed SUS, sample amount: about 0.4 to 0.7 mg, reference: α-alumina having a weight of about 0.6 mg, and atmospheric gas flow rate: dried nitrogen, about 70 mL/minute.
About each of crystal A yielded according to the same process in Example 1, and crystal B yielded according to the same process in Comparative Example 1, a device manufactured by SII Nano Technology Inc., EXTER 6000, was used to measure the DSC thereof under differential scanning calorie analysis conditions described below.
(Differential Scanning Calorie Analysis Conditions)

| solubility in 100 g of water ([1]; 25° C.) | solubility in 100 g of water ([1]; 55° C.) | solubility in 100 g of water ([1]; 75° C.) | Endothermic peak [2] | Exothermic peak [2] | solubility in 100 g of water ([1]; 40° C.) | SMILES | thermal stability ([2]; concluded from the DSC endothermic and exothermic peaks, compared with crystal B) |
| --- | --- | --- | --- | --- | --- | --- | --- |
| 1.98 g | 2.59 g | 2.86 g | 187 °C | 349 °C |  | NC[C@H](CC(=O)O)c1ccc(Cl)cc1 [Crystal B, (R)-4-amino-3-(4-chlorophenyl)butanoic acid, reference compound] |  |
| 0.88 g |  | 2.20 g | 203 °C | 386 °C | 1.16 g | NC[C@H](CC(=O)O)c1ccc(Cl)cc1 [Crystal A, (R)-4-amino-3-(4-chlorophenyl)butanoic acid] | far better in thermal stability than crystal B |
